Experimental data reported in article PMC10223347, “Acute Toxicity and Pharmacokinetic Profile of an EU-GMP-Certified Cannabis sativa L. in Rodents” (Pharmaceuticals, 2023).

Experiments:
[1] = Pharmacokinetic profile: cannabinoids in rat serum by LC-MS/MS, non-compartmental analysis; settings: for amount identified and quantitated in serum samples: rats given doses of 5, 50, 300 and 600 mg/kg, LC-MS; for Tmax / AUC Inf / AUC Last / Cl / Cmax / T1/2 / Vd: rat serum
Procedure: The pharmacokinetic profile of the EU-GMP-certified Cannabis sativa L. with 15.6% THC and <1% CBD was assessed using 4 dose levels, 5, 50, 300, and 600 mg/kg. Dose levels were chosen in accordance with OECD 417 guidelines being lower than 1000 mg/kg but still high enough to allow for the identification and measurement of natural cannabinoids in the serum. Each dose level group consisted of 6 female Sprague-Dawley rats (8–12 weeks, 200–300 g) housed, cared and treated in the same conditions as the animals involved in the acute toxicity study. After gavage delivery of the compound, blood samples were collected, through a cardiac puncture, at 15 min, 30 min, 1 h, 2 h, 3 h, 4 h, 8 h, 12 h, 24 h, 48 h, and 72 h, respectively. The collected blood samples were then allowed to clot for 30 min at room temperature and centrifuged at 2000× g for 15 min at 4 °C. The separated serum samples were transferred immediately in microcentrifuge tubes and stored at −20 °C until THC and THCA quantification using LC-MS analysis were performed.
A method for simultaneous extraction and LC-MS/MS quantitation of 11 cannabinoids was developed and validated for the present study. Cannabinoid extraction from rat serum was performed according to the method described by Wakshlag et al., with modifications. Rat serum (40 μL) was mixed with 10 μL water: methanol (1:1) and 10 μL internal standard (200 ng/mL of CBD-d3) diluted in water: methanol (1:1). Proteins were precipitated by adding 80 μL ice-cold acetonitrile to each sample followed by vortex 2 min at 6 °C, 1000 rpm and centrifugation at 4000 rpm for 10 min at 4 °C. The supernatant (100 μL) was mixed with ultrapure water (100 μL) in another 1.5 mL microcentrifuge tube and centrifuged again at 4000 rpm for 10 min at 4 °C. The supernatant (100 μL) was transferred to another 1.5 mL microcentrifuge tube and placed in ice until LCMS analysis. Ten μL of the sample were injected into a Phenomenex Kinetex C18 (100 × 4.6 mm, 2.6 μm, 100 Å) HPLC separation column connected in the column compartment of an Agilent 1200 HPLC coupled to an Agilent 6410 electrospray-triple quadrupole mass spectrometer. A 10:1 post-column splitter was used. The column was equilibrated with mobile phase A (0.1% formic acid in water) and mobile phase B (0.1% formic acid in acetonitrile) at 50% B for 1 min. A linear gradient from 50% B to 90% B for 3 min was used and was held constant at 90% B for 6 min, then decreased to 50% B in 1 min and maintained at 50% B for 5 min. The flow rate was […], and the column temperature was 24 °C.
The mass spectrometer was operated in positive mode. The source parameters were a capillary voltage of 4000 V, a gas of temperature 325 °C, a gas flow of 8 L/min, and a nebulizer of 35 psi. The parameters of the mass spectrometer for each time and scan segment and the retention time for each compound are presented in Table 3.
The qualitative analysis of the chromatograms and mass spectra was performed by Agilent MassHunter Workstation Software Qualitative Analysis v.B.01.02 and the quantitative analysis by Agilent MassHunter Workstation Software Quantitative Analysis v.B.01.03. Linear calibration curves were obtained for all 11 cannabinoids using the relative response (peak area of each cannabinoid/peak area of internal standard) and the relative concentration (concentration of each cannabinoid/concentration of internal standard). A linear 7-point calibration curve with 1/×2 weighing and a concentration range of 5–1000 ng/mL in rat serum was employed for the quantitation of the serum samples collected in the present study. The analysis of carryover was performed by LC/MS analysis of a blank sample extracted from normal rat serum after LC/MS analysis of a sample extracted from rat serum fortified with 1000 ng/mL natural cannabinoids.

Scn1A mice = system: Scn1A mice; set-up: method as in PMID 34384142; settings: cited from earlier work
[2] = system: seizure models with electric shocks; set-up: method as in PMID 34384142; settings: doses of 10 and 30 mg/kg; cited from earlier work
CB2 [3] = system: CB2; set-up: method as in PMID 28861508; settings: relative to THC; cited from earlier work
CB2 [4] = system: CB2; set-up: method as in PMID 28861508; settings: cited from earlier work
CB1 [5] = system: CB1; set-up: method as in PMID 28861508; settings: suggests a weak agonist activity; cited from earlier work
CB1 [6] = system: CB1; set-up: method as in PMID 28861508; settings: relative to THC; cited from earlier work
[7] = oral 5 mg/kg Cannabixir Medium Flos (0.78 mg Δ9-THCA-A + Δ9-THC)
[8] = oral 50 mg/kg Cannabixir Medium Flos (7.8 mg Δ9-THCA-A + Δ9-THC)
[9] = oral 300 mg/kg Cannabixir Medium Flos (46.8 mg Δ9-THCA-A + Δ9-THC)
[10] = oral 600 mg/kg Cannabixir Medium Flos (93.6 mg Δ9-THCA-A + Δ9-THC)

SMILES: CCCCCc1cc2c(c(O)c1C(=O)O)C=CC(C)(CCC=C(C)C)O2 (stereo not drawn) [CBCA, cannabichromenic acid]
- amount identified and quantitated in serum samples [1]: low amounts

SMILES: CCCc1cc2c(c(O)c1C(=O)O)C=CC(C)(CCC=C(C)C)O2 (stereo not drawn) [CBCVA, cannabichromevarinic acid]
- frequency of convulsions (Scn1A mice): increase frequency of convulsions

SMILES: C=C(C)[C@@H]1CCC(C)=C[C@H]1c1c(O)cc(CCCCC)c(C(=O)O)c1O [CBDA, cannabidiolic acid]
- amount identified and quantitated in serum samples [1]: low amounts

SMILES: C=C(C)[C@@H]1CCC(C)=C[C@H]1c1c(O)cc(CCC)c(C(=O)O)c1O [CBDVA, cannabidivarinic acid]
- frequency of convulsions (Scn1A mice): increase frequency of convulsions

SMILES: CCCCCc1cc(O)c(C/C=C(\C)CCC=C(C)C)c(O)c1 [CBG, Cannabigerol]
- frequency of convulsions (Scn1A mice): increase frequency of convulsions

SMILES: CCCCCc1cc(O)c(C/C=C(\C)CCC=C(C)C)c(O)c1C(=O)O [CBGA, cannabigerolic acid]
- amount identified and quantitated in serum samples [1]: high amounts
- frequency of convulsions (Scn1A mice): increase frequency of convulsions
- effect on seizure models with electric shocks [2]: pro-convulsive

SMILES: CCCCCc1cc(O)c2c(c1)OC(C)(C)[C@@H]1CCC(C)=C[C@@H]21 [Δ9-THC, Δ9-tetrahydrocannabinol]
- Tmax [1, 7]: 0 h
- Tmax [1, 8]: 0 h
- AUC Inf [1, 9]: BQL
- AUC Last [1, 9]: BQL
- Cl [1, 9]: BQL
- Cmax [1, 9]: BQL
- T1/2 [1, 9]: BQL
- Tmax [1, 9]: BQL
- Vd [1, 9]: BQL
- AUC Inf [1, 10]: 287.2334 ng·h/mL
- AUC Last [1, 10]: 284.342 ng·h/mL
- Cl [1, 10]: 5431.12 mL/min/kg
- Cmax [1, 10]: 34.916 ng/mL
- T1/2 [1, 10]: 7.080 h
- Tmax [1, 10]: 0.25 h
- Vd [1, 10]: 3328.818 L/kg
- amount identified and quantitated in serum samples [1]: low amounts

SMILES: CCCCCc1cc2c(c(O)c1C(=O)O)C1C=C(C)CCC1C(C)(C)O2 (stereo not drawn) [Δ9-THCA-A, Δ9-tetrahydrocannabinolic acid]
- binding for CB2, times smaller than THC (CB2 [3]): ≥ 125 times
- efficacy for CB2 (CB2 [4]): no efficacy
- AUC Inf [1, 7]: 260.802 ng·h/mL
- AUC Last [1, 7]: 197.236 ng·h/mL
- Cmax [1, 7]: 42.425 ng/mL
- T1/2 [1, 7]: 5.3374 h
- Tmax [1, 7]: 3 h
- Vd [1, 7]: 23.0298 L/kg
- AUC Inf [1, 8]: 3172.8488 ng·h/mL
- AUC Last [1, 8]: 3163.1937 ng·h/mL
- Cl [1, 8]: 40.972 mL/min/kg
- Cmax [1, 8]: 404.16 ng/mL
- T1/2 [1, 8]: 5.4189 h
- Tmax [1, 8]: 3 h
- Vd [1, 8]: 19.2193 L/kg
- AUC Inf [1, 9]: 13,544.792 h*ng/mL
- AUC Last [1, 9]: 13,323.57 h*ng/mL
- Cl [1, 9]: 57.587 mL/min/kg
- Cmax [1, 9]: 2787.617 ng/mL
- T1/2 [1, 9]: 10.291 h
- Tmax [1, 9]: 0.5 h
- Vd [1, 9]: 51.298 L/kg
- AUC Inf [1, 10]: 43,261.689 h*ng/mL
- AUC Last [1, 10]: 40,371.48 h*ng/mL
- Cl [1, 10]: 36.058 mL/min/kg
- Cmax [1, 10]: 10,563.4 ng/mL
- T1/2 [1, 10]: 10.988 h
- Tmax [1, 10]: 0.25 h
- Vd [1, 10]: 34.298 L/kg
- amount identified and quantitated in serum samples [1]: high amounts
- efficacy at CB1 (AMPc) (CB1 [5]): slightly inhibited AMPc
- binding for CB1, times smaller than that of THC (CB1 [6]): at least 62 times
